Measurements reported in US20090181369A1, “Methods for the Treatment of Disease” (priority 2005, published 2009).

Experiments:
[1] = test system: chronic myeloid leukemia (CML); conditions: chronic phase CML patients; cited from earlier work
FTase, β subunit W106R = FTase, β subunit W106R (Homo sapiens, UniProt P49356, W106R); conditions: all drug concentrations
[2] = test system: BaF3 cells expressing wild-type FNTB; assay: cells; conditions: Mus musculus, BaF3, 336 h, read-out: Cellular IC50
[3] = test system: BaF3 cells expressing FNTB P152S; assay: cells; conditions: Mus musculus, BaF3, 336 h, read-out: Cellular IC50
[4] = test system: BaF3 cells expressing FNTB G241E; assay: cells; conditions: Mus musculus, BaF3, 336 h, read-out: Cellular IC50
[5] = patients, reported (ref. 8); cited from earlier work
[6] = test system: BaF3 cells expressing FNTB C95R; assay: soft agar colony assay (cellular IC50); conditions: Mus musculus, BaF3, 336 h, read-out: Cellular IC50
[7] = test system: BaF3 cells expressing FNTB W106R; assay: soft agar colony assay (cellular IC50); conditions: Mus musculus, BaF3, 336 h, read-out: Cellular IC50

HDJ2 farnesylation by western blot (FTase, β subunit W106R) [%] | IC50 [2] [µM] | IC50 [3] [µM] | IC50 [4] [µM] | IC50 [6] [µM] | IC50 [7] [µM] | Compound | response rate [1] | trough plasma concentrations [5] [µM]
– | – | – | – | – | – | Cc1ccc(NC(=O)c2ccc(CN3CCN(C)CC3)cc2)cc1Nc1nccc(-c2cccnc2)n1 [imatinib] | over 90% | –
100 | 0.09 | 0.3 | 0.6 | 1.8 | > 10 | NC(=O)N1CCC(CC(=O)N2CCC([C@H]3c4ncc(Br)cc4CCc4cc(Cl)cc(Br)c43)CC2)CC1 [Lonafarnib, (+)-4-[2-[4-(8-Chloro-3,10-dibromo-6,11-dihydro-5H-benzo[5,6]cyclohepta[1,2-b]-pyridin-11(R)-yl)-1-piperidinyl]-2-oxo-ethyl]-1-piperidinecarboxamide] | – | 1.5
